# Experimental data: publication PMC8766756, “Insights on Cancer Cell Inhibition, Subcellular Activities, and Kinase Profile of Phenylacetamides Pending 1H-Imidazol-5-One Variants” (Frontiers in Pharmacology, 2022)
# “And” between values parts separate entries of the source, which are not always exact repeats. Equal values may be shown once.
# Columns and labels:
# Experiment in all cases: PamChip tyrosine kinase microarray
# Type in all cases: biochemical
# Conditions in all cases: 0.1 µM, HL60 lysate
# [1] = molecular target: T1, BLK (P51451) (Homo sapiens, UniProt P51451)
# T1 construct: purchased PamGene (PamChip PTK array, Upstream Kinase Analysis)
# Method in brief: (§1)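 HL60 (AML) cell lysate was spiked with compound at 0.001, 0.01, 0.1, 1, 10 and 50 µM, or 2% v/v DMSO as control, then profiled in technical replicates on a tyrosine kinase peptide array of 196 phosphosites. Kinase activity was inferred from peptide-set changes using an upstream kinase tool.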
# [2] = molecular target: T2, Brk (Q13882) (Homo sapiens, UniProt Q13882)
# T2 construct: purchased PamGene (PamChip PTK array, Upstream Kinase Analysis)
# Method in brief: as §1
# [3] = molecular target: T3, CTK (P42679) (Homo sapiens, UniProt P42679)
# T3 construct: purchased PamGene (PamChip PTK array, Upstream Kinase Analysis)
# T3 sequence (P42679 1-507): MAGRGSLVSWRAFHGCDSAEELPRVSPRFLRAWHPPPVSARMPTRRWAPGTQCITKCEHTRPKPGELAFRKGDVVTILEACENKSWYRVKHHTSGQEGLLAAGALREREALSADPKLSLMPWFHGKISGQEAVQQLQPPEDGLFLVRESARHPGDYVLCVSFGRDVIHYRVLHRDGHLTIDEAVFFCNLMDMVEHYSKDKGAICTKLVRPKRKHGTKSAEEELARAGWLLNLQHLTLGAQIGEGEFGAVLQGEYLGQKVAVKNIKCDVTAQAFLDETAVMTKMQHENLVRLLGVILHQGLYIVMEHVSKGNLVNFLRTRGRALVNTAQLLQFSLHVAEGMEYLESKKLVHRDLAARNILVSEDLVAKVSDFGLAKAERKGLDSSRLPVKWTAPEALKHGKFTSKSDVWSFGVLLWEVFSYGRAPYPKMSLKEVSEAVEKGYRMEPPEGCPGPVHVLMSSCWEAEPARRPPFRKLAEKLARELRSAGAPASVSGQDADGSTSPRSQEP
# Method in brief: as §1
# [4] = molecular target: T4, EphA2 (P29317) (Homo sapiens, UniProt P29317)
# T4 construct: purchased PamGene (PamChip PTK array, Upstream Kinase Analysis)
# Method in brief: as §1
# [5] = molecular target: T5, EphA7 (Q15375) (Homo sapiens, UniProt Q15375)
# T5 construct: purchased PamGene (PamChip PTK array, Upstream Kinase Analysis)
# Method in brief: as §1
# [6] = molecular target: T6, FGFR3 (P22607) (Homo sapiens, UniProt P22607)
# T6 construct: purchased PamGene (PamChip PTK array, Upstream Kinase Analysis)
# Method in brief: as §1
# [7] = molecular target: T7, IGF1R (P08069) (Homo sapiens, UniProt P08069)
# T7 construct: purchased PamGene (PamChip PTK array, Upstream Kinase Analysis)
# Method in brief: as §1
# [8] = molecular target: T8, KDR (P35968) (Homo sapiens, UniProt P35968)
# T8 construct: purchased PamGene (PamChip PTK array, Upstream Kinase Analysis)
# Method in brief: as §1
# [9] = molecular target: T9, Src (P12931) (Homo sapiens, UniProt P12931)
# T9 construct: purchased PamGene (PamChip PTK array, Upstream Kinase Analysis)
# Method in brief: as §1
# [10] = molecular target: T10, TRKB (Q16620) (Homo sapiens, UniProt Q16620)
# T10 construct: purchased PamGene (PamChip PTK array, Upstream Kinase Analysis)
# Method in brief: as §1
# T7 sequence (P08069 31-1367): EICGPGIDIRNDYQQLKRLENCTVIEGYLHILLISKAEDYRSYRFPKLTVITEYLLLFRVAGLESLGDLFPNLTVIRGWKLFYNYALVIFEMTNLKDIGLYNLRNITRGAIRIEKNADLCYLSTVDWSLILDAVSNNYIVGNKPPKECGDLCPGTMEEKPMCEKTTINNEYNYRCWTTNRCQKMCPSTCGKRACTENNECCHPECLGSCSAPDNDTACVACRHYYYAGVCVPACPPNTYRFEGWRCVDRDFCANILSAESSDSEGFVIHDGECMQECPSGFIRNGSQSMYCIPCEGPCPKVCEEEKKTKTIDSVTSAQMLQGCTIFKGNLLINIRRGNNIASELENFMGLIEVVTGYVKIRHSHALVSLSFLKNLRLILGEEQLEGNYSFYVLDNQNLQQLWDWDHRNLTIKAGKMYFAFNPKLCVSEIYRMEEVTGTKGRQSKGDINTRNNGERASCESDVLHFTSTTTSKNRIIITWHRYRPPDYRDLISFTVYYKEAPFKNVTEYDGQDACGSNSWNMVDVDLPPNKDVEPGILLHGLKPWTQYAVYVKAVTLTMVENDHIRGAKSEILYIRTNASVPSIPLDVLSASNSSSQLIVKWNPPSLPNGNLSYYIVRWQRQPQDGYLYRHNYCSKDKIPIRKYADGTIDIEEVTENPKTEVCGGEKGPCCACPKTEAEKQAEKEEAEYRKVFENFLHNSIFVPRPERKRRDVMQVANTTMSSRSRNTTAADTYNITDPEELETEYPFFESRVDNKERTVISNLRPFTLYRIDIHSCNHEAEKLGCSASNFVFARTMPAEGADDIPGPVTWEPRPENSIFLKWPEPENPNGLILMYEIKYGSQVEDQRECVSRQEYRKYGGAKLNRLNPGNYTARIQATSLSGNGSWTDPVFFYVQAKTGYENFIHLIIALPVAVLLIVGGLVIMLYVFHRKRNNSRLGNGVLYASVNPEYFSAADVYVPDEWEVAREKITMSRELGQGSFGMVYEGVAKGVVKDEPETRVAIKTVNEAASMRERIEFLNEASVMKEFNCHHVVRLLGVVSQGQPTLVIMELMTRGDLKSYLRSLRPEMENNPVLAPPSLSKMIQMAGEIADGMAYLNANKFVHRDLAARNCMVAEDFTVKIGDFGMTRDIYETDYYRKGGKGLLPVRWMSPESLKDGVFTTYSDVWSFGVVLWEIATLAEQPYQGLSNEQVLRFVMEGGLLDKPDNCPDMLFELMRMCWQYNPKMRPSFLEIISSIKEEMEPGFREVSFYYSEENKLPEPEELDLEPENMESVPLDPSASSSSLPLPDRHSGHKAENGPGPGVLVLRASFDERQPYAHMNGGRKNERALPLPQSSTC
# T2 sequence (Q13882 whole entry): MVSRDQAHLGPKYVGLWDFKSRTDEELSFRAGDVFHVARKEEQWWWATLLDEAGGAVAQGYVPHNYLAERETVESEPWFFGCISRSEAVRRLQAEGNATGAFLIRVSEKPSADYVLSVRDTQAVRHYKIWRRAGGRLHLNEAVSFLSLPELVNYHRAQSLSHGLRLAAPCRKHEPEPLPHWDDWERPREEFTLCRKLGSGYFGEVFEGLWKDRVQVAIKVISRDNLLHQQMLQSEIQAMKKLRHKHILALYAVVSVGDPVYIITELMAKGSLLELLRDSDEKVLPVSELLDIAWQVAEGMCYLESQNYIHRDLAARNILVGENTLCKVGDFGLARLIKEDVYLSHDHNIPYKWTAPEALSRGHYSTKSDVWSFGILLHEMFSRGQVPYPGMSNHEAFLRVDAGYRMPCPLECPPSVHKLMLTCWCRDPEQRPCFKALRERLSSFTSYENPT
# T8 sequence (P35968 20-1356): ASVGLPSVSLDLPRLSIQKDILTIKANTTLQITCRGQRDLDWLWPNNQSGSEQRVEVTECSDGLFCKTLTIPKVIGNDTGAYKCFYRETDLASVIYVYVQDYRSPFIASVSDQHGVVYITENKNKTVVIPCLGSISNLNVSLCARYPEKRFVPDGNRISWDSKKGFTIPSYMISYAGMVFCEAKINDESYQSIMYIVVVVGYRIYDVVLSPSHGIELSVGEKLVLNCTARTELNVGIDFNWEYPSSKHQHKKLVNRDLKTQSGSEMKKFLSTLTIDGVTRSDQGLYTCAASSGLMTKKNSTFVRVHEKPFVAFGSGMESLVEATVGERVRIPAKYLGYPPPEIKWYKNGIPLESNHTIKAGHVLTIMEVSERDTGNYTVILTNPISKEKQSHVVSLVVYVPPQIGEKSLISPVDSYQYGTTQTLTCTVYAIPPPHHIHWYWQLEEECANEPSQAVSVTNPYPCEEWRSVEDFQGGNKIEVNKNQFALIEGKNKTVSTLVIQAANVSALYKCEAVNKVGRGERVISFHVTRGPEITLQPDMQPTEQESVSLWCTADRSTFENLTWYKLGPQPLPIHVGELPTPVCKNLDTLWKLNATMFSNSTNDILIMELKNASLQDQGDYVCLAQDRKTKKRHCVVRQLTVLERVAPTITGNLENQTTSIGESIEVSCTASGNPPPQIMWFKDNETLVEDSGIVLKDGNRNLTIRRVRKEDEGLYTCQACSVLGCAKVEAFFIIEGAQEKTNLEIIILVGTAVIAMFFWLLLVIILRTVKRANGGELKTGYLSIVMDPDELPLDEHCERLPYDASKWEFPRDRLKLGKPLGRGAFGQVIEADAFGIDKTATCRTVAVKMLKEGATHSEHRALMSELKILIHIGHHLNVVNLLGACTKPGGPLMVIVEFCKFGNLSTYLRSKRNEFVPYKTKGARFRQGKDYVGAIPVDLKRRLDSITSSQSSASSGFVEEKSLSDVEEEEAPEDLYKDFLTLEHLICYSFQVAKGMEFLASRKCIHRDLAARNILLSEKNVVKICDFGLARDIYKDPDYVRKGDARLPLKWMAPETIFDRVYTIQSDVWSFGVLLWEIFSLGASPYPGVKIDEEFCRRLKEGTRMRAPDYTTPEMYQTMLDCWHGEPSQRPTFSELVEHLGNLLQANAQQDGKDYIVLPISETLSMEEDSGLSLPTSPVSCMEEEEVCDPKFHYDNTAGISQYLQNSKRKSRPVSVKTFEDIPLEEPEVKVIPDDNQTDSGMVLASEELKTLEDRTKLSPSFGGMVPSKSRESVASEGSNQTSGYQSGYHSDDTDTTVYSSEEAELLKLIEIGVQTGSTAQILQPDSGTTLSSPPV
# T6 sequence (P22607 23-806): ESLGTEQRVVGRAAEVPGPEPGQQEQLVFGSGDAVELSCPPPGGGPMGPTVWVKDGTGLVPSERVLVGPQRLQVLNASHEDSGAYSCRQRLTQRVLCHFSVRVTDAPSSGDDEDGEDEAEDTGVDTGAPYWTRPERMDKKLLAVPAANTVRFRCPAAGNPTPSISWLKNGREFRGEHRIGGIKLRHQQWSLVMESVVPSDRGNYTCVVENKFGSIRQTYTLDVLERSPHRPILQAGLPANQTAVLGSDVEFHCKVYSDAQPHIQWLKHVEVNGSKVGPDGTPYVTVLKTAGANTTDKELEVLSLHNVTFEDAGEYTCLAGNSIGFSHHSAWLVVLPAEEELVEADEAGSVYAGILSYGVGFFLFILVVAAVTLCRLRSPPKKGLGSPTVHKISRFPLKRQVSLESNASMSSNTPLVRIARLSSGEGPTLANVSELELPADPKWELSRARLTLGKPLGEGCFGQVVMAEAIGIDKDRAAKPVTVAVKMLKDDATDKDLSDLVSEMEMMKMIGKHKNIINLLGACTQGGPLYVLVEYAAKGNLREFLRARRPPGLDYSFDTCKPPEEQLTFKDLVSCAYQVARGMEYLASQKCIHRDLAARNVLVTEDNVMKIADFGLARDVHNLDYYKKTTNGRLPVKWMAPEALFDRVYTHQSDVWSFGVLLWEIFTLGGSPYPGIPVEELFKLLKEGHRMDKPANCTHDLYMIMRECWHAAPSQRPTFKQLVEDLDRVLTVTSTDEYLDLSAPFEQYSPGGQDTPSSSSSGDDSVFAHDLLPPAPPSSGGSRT
# T4 sequence (P29317 24-976): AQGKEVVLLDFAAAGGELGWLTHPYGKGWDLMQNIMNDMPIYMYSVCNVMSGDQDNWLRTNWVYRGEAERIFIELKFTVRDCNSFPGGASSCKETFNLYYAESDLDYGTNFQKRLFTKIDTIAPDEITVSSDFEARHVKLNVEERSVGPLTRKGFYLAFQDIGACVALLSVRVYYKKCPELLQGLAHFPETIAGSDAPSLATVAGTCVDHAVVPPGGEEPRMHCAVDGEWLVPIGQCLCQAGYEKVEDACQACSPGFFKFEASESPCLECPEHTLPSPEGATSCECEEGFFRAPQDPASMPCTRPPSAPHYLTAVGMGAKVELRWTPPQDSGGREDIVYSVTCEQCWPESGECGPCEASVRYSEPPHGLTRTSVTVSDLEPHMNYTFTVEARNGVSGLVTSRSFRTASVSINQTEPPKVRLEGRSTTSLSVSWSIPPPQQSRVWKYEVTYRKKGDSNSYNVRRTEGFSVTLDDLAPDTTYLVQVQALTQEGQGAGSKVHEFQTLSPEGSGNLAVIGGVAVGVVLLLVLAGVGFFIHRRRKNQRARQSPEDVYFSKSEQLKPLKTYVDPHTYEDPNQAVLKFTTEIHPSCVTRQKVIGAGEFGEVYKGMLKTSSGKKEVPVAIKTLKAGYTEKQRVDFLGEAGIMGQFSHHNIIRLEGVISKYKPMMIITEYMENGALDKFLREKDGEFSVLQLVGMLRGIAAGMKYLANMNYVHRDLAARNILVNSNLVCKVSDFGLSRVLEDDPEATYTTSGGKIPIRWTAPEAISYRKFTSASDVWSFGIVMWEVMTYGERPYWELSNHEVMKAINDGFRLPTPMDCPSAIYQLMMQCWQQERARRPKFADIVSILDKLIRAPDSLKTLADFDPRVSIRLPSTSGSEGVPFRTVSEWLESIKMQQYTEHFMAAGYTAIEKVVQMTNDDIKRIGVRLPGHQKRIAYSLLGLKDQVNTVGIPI
compound,measurement,setting,value
"COc1ccc(/C=C2\N=C(C)N(c3ccc(CC(=O)NCc4ccccc4)cc3)C2=O)cc1 [Compound 4c, (Z)-N-Benzyl-2-(4-(4-(4-methoxybenzylidene)-2-methyl-5-oxo-4,5-dihydro-1H-imidazol-1-yl)phenyl)acetamide]",Mean Final score (Kinase score),[1],1.48
same,Mean Kinase Statistic,[1],-1.015
same,Mean Significance Score,[1],1.433
same,Mean Specificity Score,[1],0.07394
same,Mean Final score (Kinase score),[2],2.481
same,Mean Kinase Statistic,[2],-1.21
same,Mean Significance Score,[2],2.048
same,Mean Specificity Score,[2],0.446
same,Mean Final score (Kinase score),[3],2.298
same,Mean Kinase Statistic,[3],-1.147
same,Mean Significance Score,[3],2.048
same,Mean Specificity Score,[3],0.2322
same,Mean Significance Score,[4],1.975
same,Mean Specificity Score,[4],0.9606
same,Mean Final score (Kinase score),[4]; listed as KIM-161,3.09 and 3.095
same,Mean Final score (Kinase score),[5],0.8806
same,Mean Kinase Statistic,[5],-0.6736
same,Mean Significance Score,[5],0.8204
same,Mean Specificity Score,[5],0.0595
same,Mean Final score (Kinase score),[6],2.271
same,Mean Kinase Statistic,[6],-1.175
same,Mean Significance Score,[6],1.984
same,Mean Specificity Score,[6],0.3218
same,Mean Final score (Kinase score),[7],2.173
same,Mean Kinase Statistic,[7],-1.034
same,Mean Significance Score,[7],2.048
same,Mean Specificity Score,[7],0.1033
same,Mean Final score (Kinase score),[8],2.535
same,Mean Kinase Statistic,[8],-1.256
same,Mean Significance Score,[8],2.048
same,Mean Specificity Score,[8],0.5472
same,Mean Significance Score,[9],2.048
same,Mean Specificity Score,[9],0.05941
same,Mean Final score (Kinase score),[9]; listed as KIM-161,2.16 and 2.164
same,Mean Final score (Kinase score),[10],2.487
same,Mean Kinase Statistic,[10],-1.25
same,Mean Significance Score,[10],2.048
same,Mean Specificity Score,[10],0.5169
